The text below walks through data of US8106048B2, “Heterocyclic NF-κB inhibitors” (4SC AG, priority 2004, dated 2012).

The test concerns A549-NF-κB-SEAP reporter cells. Nature of the test: Inhibition of NF-κB-induced inflammation: […] NINA Instant Assay, TNF-α stimulated SEAP reporter. Conditions: % inhibition classes. Format: cell-based. An excerpt:
For the determination of anti-inflammatory activity of the compounds the […]® NINA Instant Assay from Cell Culture Service GmBH was used. This assay is based on […] recombinant A549-NF-κB-SEAP reporter cells preceded in 96-well flat bottom plates. As the transfected reportergen for SEAP (secreted embryonic alkaline phosphatase) is under transcriptional control of a NF-κB-responsive element, the expression of this reporter is activated upon stimulation with TNF-α. SEAP secretion into the culture supernatant can be detected by the chemiluminescent substrate CSPD®. Test compounds that inhibit the NF-κB activation show reduced SEAP activity and reduced luminescent readout.
Following 18 h of reactivation at 37° C., 5% CO2 and 90% relative humidity, the cells were incubated with 0.01 up to 100 μM of test compound for 4.5 h before stimulation with 2 ng/ml TNF-α. After stimulation with TNF-α for 22 h endogenous phosphatases were inactivated and CSPD® substrate was supplied for 40 min. SEAP activity then was quantified by measuring luminescence as relative light units (RLU) using a Tecan Ultra reader. Each data point was recorded in quadruplicates and EC50 values were calculated via fitting function and the Microsoft Excel Solver.
In the case of `N=C(NC(=O)c1coc(NC(=O)c2ccccc2OC(F)(F)F)n1)Nc1nc2ccccc2[nH]1` [compound 28], the “Biological activity (inhibition in the NF-κB inflammation assay)” value was “+++ (“+++” stands for 90-100% inhibition)”. In the case of `COc1ccc(OC)c(N2CCC(c3nc(C(=O)N4CCN(c5cccc(C(F)(F)F)c5)CC4)cs3)CC2)c1` [compound 29], the “Biological activity (inhibition in the NF-κB inflammation assay)” value was “++ (“++” means 80-90%)”.

`O=C(Nc1nc(C(=O)N2CCN(c3cccc(C(F)(F)F)c3)CC2)cs1)c1ccccc1OC(F)(F)F` [compound 32]: the “Biological activity (inhibition in the NF-κB inflammation assay)” value was “+++ (“+++” stands for 90-100% inhibition)”.

Take `O=C(CCC1CCCC1)Nc1nc(C(=O)N2CCN(c3cccc(C(F)(F)F)c3)CC2)cs1` [compound 33]: the “Biological activity (inhibition in the NF-κB inflammation assay)” value is “+++ (“+++” stands for 90-100% inhibition)”. Consider `O=C(Nc1nc(C(=O)N2CCN(c3cccc(C(F)(F)F)c3)CC2)cs1)c1ccc(C(F)(F)F)c(F)c1` [compound 34], for which the “Biological activity (inhibition in the NF-κB inflammation assay)” value is “+++ (“+++” stands for 90-100% inhibition)”. As to `O=C(c1csc(C2CCN(CCC(c3ccccc3)c3ccccc3)CC2)n1)N1CCN(c2cccc(C(F)(F)F)c2)CC1` [compound 35], the “Biological activity (inhibition in the NF-κB inflammation assay)” value is “+++ (“+++” stands for 90-100% inhibition)”. For `O=C(CCC1CCCC1)N1CCN(c2nc(C(=O)N3CCN(c4cccc(C(F)(F)F)c4)CC3)cs2)CC1` [compound 37], the “Biological activity (inhibition in the NF-κB inflammation assay)” value was “+++ (“+++” stands for 90-100% inhibition)”. Consider `COc1ccccc1C(=O)N1CCN(c2nc(C(=O)N3CCN(c4cccc(C(F)(F)F)c4)CC3)cs2)CC1` [compound 38], for which the “Biological activity (inhibition in the NF-κB inflammation assay)” value is reported as “+++ (“+++” stands for 90-100% inhibition)”. `O=C(c1csc(N2CCN(C(=O)c3ccccc3OC(F)(F)F)CC2)n1)N1CCN(c2cccc(C(F)(F)F)c2)CC1` [compound 39]: the “Biological activity (inhibition in the NF-κB inflammation assay)” value is reported as “+++ (“+++” stands for 90-100% inhibition)”. With `O=C(Nc1nc(C(=O)N2CCN(c3ccc(Cl)c(Cl)c3)CC2)cs1)c1ccccc1OC(F)(F)F` [compound 41] the entry was “+++ (“+++” stands for 90-100% inhibition)”. The result for `COc1ccccc1N1CCN(C(=O)c2csc(NC(=O)c3ccccc3OC(F)(F)F)n2)CC1` [compound 44] reads “++ (“++” means 80-90%)”.

In the case of `O=C(c1csc(C2CCN(C(=O)c3ccccc3OC(F)(F)F)CC2)n1)N1CCN(c2nc3ccccc3n2Cc2ccc(F)cc2)CC1` [compound 48], the “Biological activity (inhibition in the NF-κB inflammation assay)” value is “+++ (“+++” stands for 90-100% inhibition)”. Regarding `N=C(NC(=O)c1cnc(NC(=O)c2ccccc2OC(F)(F)F)s1)Nc1nc2ccccc2[nH]1` [compound 50], the “Biological activity (inhibition in the NF-κB inflammation assay)” value was “+++ (“+++” stands for 90-100% inhibition)”. Regarding `O=C(Nc1nc(C(=O)N2CCN(c3cccc(C(F)(F)F)c3)CC2)cs1)Nc1ccccc1OC(F)(F)F` [compound 55], the “Biological activity (inhibition in the NF-κB inflammation assay)” value is recorded as “+++ (“+++” stands for 90-100% inhibition)”. `O=C(Nc1nc(C(=O)N2CCN(C(c3ccccc3)c3ccccc3)CC2)cs1)c1ccccc1OC(F)(F)F` [compound 58]: the “Biological activity (inhibition in the NF-κB inflammation assay)” value is on record as “++ (“++” means 80-90%)”. For the compound `O=C(c1cc(C(F)(F)F)cc(C(F)(F)F)c1)N1CCN(c2nc(C(=O)N3CCN(c4cccc(C(F)(F)F)c4)CC3)cs2)CC1` [compound 59], the “Biological activity (inhibition in the NF-κB inflammation assay)” value is reported as “+ (“+” stands for 50-80% inhibition)”. On to `O=C(c1ccc(C(F)(F)F)c(F)c1)N1CCN(c2nc(C(=O)N3CCN(c4cccc(C(F)(F)F)c4)CC3)cs2)CC1` [compound 60], for which the “Biological activity (inhibition in the NF-κB inflammation assay)” value is listed as “+++ (“+++” stands for 90-100% inhibition)”. With `N#Cc1ccc(C(=O)N2CCN(c3nc(C(=O)N4CCN(c5cccc(C(F)(F)F)c5)CC4)cs3)CC2)cc1` [compound 61], the “Biological activity (inhibition in the NF-κB inflammation assay)” value is given as “+++ (“+++” stands for 90-100% inhibition)”. As to `N#Cc1ccc(CN2CCN(c3nc(C(=O)N4CCN(c5cccc(C(F)(F)F)c5)CC4)cs3)CC2)cc1` [compound 62], the “Biological activity (inhibition in the NF-κB inflammation assay)” value is given as “+++ (“+++” stands for 90-100% inhibition)”. As to `CC(C)(C)OC(=O)N1CCN(c2nc(C(=O)N3CCN(c4cccc(C(F)(F)F)c4)CC3)cs2)CC1` [compound 63], the “Biological activity (inhibition in the NF-κB inflammation assay)” value is “++ (“++” means 80-90%)”. On to `O=C(c1csc(N2CCNCC2)n1)N1CCN(c2cccc(C(F)(F)F)c2)CC1` [compound 64], for which the “Biological activity (inhibition in the NF-κB inflammation assay)” value is “+ (“+” stands for 50-80% inhibition)”.

Regarding `COc1ccccc1N1CCN(c2nc(C(=O)N3CCN(c4cccc(C(F)(F)F)c4)CC3)cs2)CC1` [compound 65], the “Biological activity (inhibition in the NF-κB inflammation assay)” value is reported as “++ (“++” means 80-90%)”.

Take `CC(=O)c1ccc(N2CCN(c3nc(C(=O)N4CCN(c5cccc(C(F)(F)F)c5)CC4)cs3)CC2)cc1` [compound 66]: the “Biological activity (inhibition in the NF-κB inflammation assay)” value is “++ (“++” means 80-90%)”. As to `O=C(c1csc(N2CCN(c3cccc(C(F)(F)F)c3)CC2)n1)N1CCN(c2cccc(C(F)(F)F)c2)CC1` [compound 67], the “Biological activity (inhibition in the NF-κB inflammation assay)” value is listed as “+ (“+” stands for 50-80% inhibition)”. The result for `O=C(c1csc(N2CCN(c3ccccc3)CC2)n1)N1CCN(c2cccc(C(F)(F)F)c2)CC1` [compound 68] reads “+ (“+” stands for 50-80% inhibition)”; that for `O=C(c1csc(N2CCN(c3ccc(F)cc3)CC2)n1)N1CCN(c2cccc(C(F)(F)F)c2)CC1` [compound 69], “++ (“++” means 80-90%)”. With `N#Cc1ccc(C(=O)N2CCC(c3nc(C(=O)N4CCN(c5cccc(C(F)(F)F)c5)CC4)cs3)CC2)cc1` [compound 70] the entry was “++ (“++” means 80-90%)”; with `O=C(c1csc(N2CCN(Cc3ccccc3)CC2)n1)N1CCN(C(c2ccccc2)c2ccccc2)CC1` [compound 71], “+++ (“+++” stands for 90-100% inhibition)”. Consider `O=C(c1csc(N2CCN(Cc3ccccc3)CC2)n1)N1CCN(c2cccc(C(F)(F)F)c2)CC1` [compound 72], for which the “Biological activity (inhibition in the NF-κB inflammation assay)” value is “+++ (“+++” stands for 90-100% inhibition)”. The result for `O=C(Nc1ccccc1)N1CCC(c2nc(C(=O)N3CCN(c4cccc(C(F)(F)F)c4)CC3)cs2)CC1` [compound 73] reads “++ (“++” means 80-90%)”; that for `O=C(Nc1cc(F)cc2c1OCCO2)N1CCC(c2nc(C(=O)N3CCN(c4cccc(C(F)(F)F)c4)CC3)cs2)CC1` [compound 74], “++ (“++” means 80-90%)”; that for `O=C(Nc1ccc2c(c1)OCCO2)N1CCC(c2nc(C(=O)N3CCN(c4cccc(C(F)(F)F)c4)CC3)cs2)CC1` [compound 75], “++ (“++” means 80-90%)”.

As to `Cc1cc(NC(=O)N2CCC(c3nc(C(=O)N4CCN(c5cccc(C(F)(F)F)c5)CC4)cs3)CC2)c(C(F)(F)F)o1` [compound 76], the “Biological activity (inhibition in the NF-κB inflammation assay)” value was “++ (“++” means 80-90%)”. For `O=C(NCCc1cccs1)N1CCC(c2nc(C(=O)N3CCN(c4cccc(C(F)(F)F)c4)CC3)cs2)CC1` [compound 77], the “Biological activity (inhibition in the NF-κB inflammation assay)” value is “+++ (“+++” stands for 90-100% inhibition)”. With `CC(C)NC(=O)N1CCC(c2nc(C(=O)N3CCN(c4cccc(C(F)(F)F)c4)CC3)cs2)CC1` [compound 78] the entry was “+ (“+” stands for 50-80% inhibition)”. As for `O=C(Nc1ccccc1OC(F)(F)F)N1CCC(c2nc(C(=O)N3CCN(c4cccc(C(F)(F)F)c4)CC3)cs2)CC1` [compound 79], the “Biological activity (inhibition in the NF-κB inflammation assay)” value is listed as “+++ (“+++” stands for 90-100% inhibition)”.

`COc1cccc(NC(=O)N2CCC(c3nc(C(=O)N4CCN(c5cccc(C(F)(F)F)c5)CC4)cs3)CC2)c1` [compound 80]: the “Biological activity (inhibition in the NF-κB inflammation assay)” value is given as “+ (“+” stands for 50-80% inhibition)”.

For `COc1cc(NC(=O)N2CCC(c3nc(C(=O)N4CCN(c5cccc(C(F)(F)F)c5)CC4)cs3)CC2)cc(OC)c1OC` [compound 81], the “Biological activity (inhibition in the NF-κB inflammation assay)” value is “++ (“++” means 80-90%)”. For `NC(=Nc1nc2ccccc2[nH]1)NC(=O)c1csc(NC(=O)c2ccccc2OC(F)(F)F)n1` [compound 82], the “Biological activity (inhibition in the NF-κB inflammation assay)” value is given as “+++ (“+++” stands for 90-100% inhibition)”. With `Nc1cc(=O)[nH]c(NC(=O)c2csc(C3CCN(C(=O)c4ccccc4OC(F)(F)F)CC3)n2)n1` [compound 83] the entry was “+ (“+” stands for 50-80% inhibition)”. Turning to `O=C(Nc1nnc(Cc2ccccc2)[nH]1)c1csc(C2CCN(C(=O)c3ccccc3OC(F)(F)F)CC2)n1` [compound 84], the “Biological activity (inhibition in the NF-κB inflammation assay)” value is “+ (“+” stands for 50-80% inhibition)”.

As for `CN(C)c1nc(NC(=O)c2csc(C3CCN(C(=O)c4ccccc4OC(F)(F)F)CC3)n2)cc(=O)[nH]1` [compound 85], the “Biological activity (inhibition in the NF-κB inflammation assay)” value is reported as “+ (“+” stands for 50-80% inhibition)”.

`Cc1cc(=O)[nH]c(NC(=O)c2csc(C3CCN(C(=O)c4ccccc4OC(F)(F)F)CC3)n2)n1` [compound 86]: the “Biological activity (inhibition in the NF-κB inflammation assay)” value is on record as “+ (“+” stands for 50-80% inhibition)”.

For `CN(C)c1ncnc(NC(=O)c2csc(C3CCN(C(=O)c4ccccc4OC(F)(F)F)CC3)n2)n1` [compound 88], the “Biological activity (inhibition in the NF-κB inflammation assay)” value is “+ (“+” stands for 50-80% inhibition)”.
